Data: patent US20250275953A1, “VODOBATINIB FOR REDUCING PROGRESSION OF PARKINSON'S DISEASE” (Sun Pharma Advanced Research Company Ltd., priority 2022, published 2025)

Columns and labels:
[1] = biological target: Abl (Homo sapiens, UniProt P00519); experiment: Biochemical kinase assay, native Abl (radiometric substrate phosphorylation)
Method: (§1) Conventional biochemical kinase assays, using radioactivity and fluorescence as readouts, were used to derive half maximal-inhibitory concentrations (IC50) values.
Inhibition of c-Abl kinase activity by vodobatinib was determined in a radiometric detection assay using γ-33P-labeled-ATP. […] (Abl substrate peptide), 10 mM magnesium acetate, and [γ-33P-ATP]. The reaction was initiated by addition of an MgATP mix. Following incubation for 40 minutes at room temperature, the reaction was stopped by addition of 3% phosphoric acid solution. The radiolabeled substrate was separated onto a P30 filtermat, which was washed with 75 mM phosphoric acid and methanol, and dried, following which radioactivity incorporated into the substrate was determined by scintillation counting. Similar assessments were also carried out using recombinant murine c-Abl enzyme using the identical assay format as described above.

[2] = biological target: Abl (T315I) (Homo sapiens, UniProt P00519, T315I); experiment: Biochemical kinase assay, gatekeeper mutant Abl
Text: as §1

[3] = CSF concentration, Parkinson's disease patients, open label part, Day 14; format: in vivo, human; details: for mean CSF level: 2-3 h post dose, Day 14, PD patients; for Concentration in CSF Mean (SD): Day 14, 2-3 h post dose, PD patients open label; for Concentration in CSF Geo. Mean / Concentration in CSF Median: Day 14, PD patients open label
Method: A single CSF sample was collected at either 2 h or 3 h following the dose on Day 14.
Study NCT02970019 was a multi-center safety and tolerability study of vodobatinib in 60 subjects with Parkinson's Disease (diagnosed with PD according to the Brain Bank criteria of the United Kingdom Parkinson's Disease Society) who were randomized to receive placebo or various daily doses of vodobatinib for 14 days in a parallel assignment design with quadruple masking (participant, care provider, investigator, and outcomes assessor.) In study NCT02970019, consecutive cohorts of up to eight subjects received once-daily doses of 6, 12, 18, 24, 48, 96, 192, or 384 mg of study drug for 14 days, with six subjects in each cohort on vodobatinib and two subjects in each cohort on placebo. An alternating panel design was used such that subjects in the 6 and 18 mg cohorts were the same, and subjects in the 12 and 24 mg cohorts were the same, thus yielding 48 total individuals enrolled in the eight cohorts. There was a wash-out period of 14 days between each were studied in sequential ascending dose cohorts. In parallel to the double-blind cohorts, up to four subjects per dose cohort were enrolled in an open-label study of vodobatinib to receive 24, 48 or 96 mg once-daily doses of for 14 days. These subjects underwent lumbar puncture to collect CSF on Day 1, and 2-3 h after the last morning dose on Day 14. PK blood draws (for both double-blind and open label) were collected at pre-dose (˜30 min) and at 0.5, 1, 2, 4, 8, 12 and 24 h post-dose on Days 1 and 14.
Vodobatinib levels in plasma and CSF were determined using a fully validated LC-MS/MS assay with lower limits of quantitation (LLOQ) of 2.5 ng/mL and 0.05 ng/mL, respectively. PK analyses were performed using standard non-compartmental analysis with Phoenix® WinNonlin® software Version 6.4 to estimate the PK parameters Cmax, Tmax, AUCtau and Css. Descriptive statistics were used to characterize vodobatinib concentrations and PK parameters in plasma and CSF. Statistical calculations were performed with SAS software (Version 9.4, SAS Institute, Cary, North Carolina, USA).

Cc1ccc(C(=O)NNC(=O)c2c(C)cccc2Cl)cc1C#Cc1cnc2ccccc2c1 [N′-(2-chloro-6-methylbenzoyl)-4-methyl-3-[2-(3-quinolyl)ethynyl]-benzohydrazide]
times more potent than nilotinib ([1]; 0.9 nM vs 20 nM): 20
IC50 ([1]; Table 1): 0.9 nM
IC50 [2]: 8 nM
mean CSF level ([3]; 24 mg): 1.5 nM
Concentration in CSF Mean (SD) ([3]; 24 mg): 0.6550 (0.2447) ng/mL
Concentration in CSF Mean (SD) ([3]; 24 mg, listed as vodobatinib): 0.66 ng/mL
Concentration in CSF Geo. Mean ([3]; 24 mg): 0.6317 ng/mL
Concentration in CSF Median ([3]; 24 mg): 0.6550 ng/mL
mean CSF level ([3]; 48 mg): 1.5 nM
Concentration in CSF Mean (SD) ([3]; 48 mg): 0.6683 (0.744) ng/mL
Concentration in CSF Mean (SD) ([3]; 48 mg, listed as vodobatinib): 0.67 ng/mL
Concentration in CSF Geo. Mean ([3]; 48 mg): 0.8868 ng/mL
Concentration in CSF Median ([3]; 48 mg): 0.5350 ng/mL
mean CSF level ([3]; 96 mg): 2.4 nM
Concentration in CSF Mean (SD) ([3]; 96 mg): 1.1193 (0.4533) ng/mL
Concentration in CSF Mean (SD) ([3]; 96 mg, listed as vodobatinib): 1.1 ng/mL
Concentration in CSF Geo. Mean ([3]; 96 mg): 1.0482 ng/mL
Concentration in CSF Median ([3]; 96 mg): 1.0850 ng/mL
